The values below come from patent US9642373B2, “Insecticidal compositions and methods of using same” (Woodstream Corporation, priority 2004, dated 2017).

The experiment relates to insects. The experiment can be described thus: Previous experiments, treatment of insects with 1% SLS alone (data not shown). The class given is in vivo. To be noted: 300 second time period used in testing.

`CCCCCCCCCCCCOS(=O)(=O)[O-].[Na+]` [1% SLS, sodium lauryl sulfate]: the Kill time was more than 300 s.
